Experimental data as given in US20070224645A1, “Novel cell-based phosphodiesterase assays” (priority 2006, published 2007).
“Also recorded” adds a separate entry of the source.

test system: PDE IV; test: Cell-based PDE assay in ACTOne-IRES-A2b#2 cell line with ACTOne Membrane Potential dye, no external cAMP stimulation; conditions: ACTOne-IRES-A2b#2 cell line (HEK293-CNG overexpressing human adenosine A2b receptor); readings before and 30 minutes after compound addition
Protocol: Before the assay, all cells are harvested when they reach 80-90% confluence or less, and they should not be overgrown. Culture medium of the transfected cells was removed and replaced with a volume of Dulbecco's Phosphate Buffers Saline without calcium and magnesium (DPBS) to adequately cover and wash the cells. The DPBS was removed and a sufficient volume of 1× trypsin-EDTA was added to just cover the cells (i.e. 1 ml for a 10 cm dish, 2 ml for a T75 flask, and 5 ml for a T150 flask). The plate was agitated to make sure the cells were equally covered with the solution. The cells were trypsinized at room temperature for about 5 min. After 5 min, the cells were examined to ensure that they were detached from the dish or flask. Gentle tapping of the dish/flask may aid in the process. Sufficient serum-containing medium were added to an appropriate volume and the medium was pipetted up and down through a serological pipette for 4 times to obtain a single cell suspension. A portion of the cells were counted with a hemocytometer. Cells are diluted in their appropriate medium at 7×10^5 cells/ml. 100 μl/well of cell suspension is added to 96-well plates or 20 μl/well is added to 384-well plates 16-24 hours before use. For cells with HEK293 background, poly-D-lysine-coated plates are recommended. Optimal assay conditions using standard fluorescence plate readers require a confluent monolayer of cells prior to the assay. The number of cells used per well will depend upon a number of conditions including the cell line and the instrument being used to make the reading. Cell plates are removed from the incubator after overnight incubation and examined under microscope. A confluent lawn of consistently spread cells is observed. An equal volume of IX Membrane Potential Dye Solution (BD Biosciences, Rockville, Md.) is then added to each well (e.g. 100 μl to 100 μl culture medium/well for 96-well plates, or 20 μl to 20 μl culture medium/well for 384-well plates). […] The cell plates are further incubated for 2 hrs at room temperature in the dark. Membrane potential assays are performed as described in the manual for ACTOne Membrane Potential Dye Kit (BD Biosciences, Rockville, Md.). Test compounds can be added on-line (some fluorescence plate readers also have fluid addition module, and therefore compound addition and fluorescence intensity reading can happen simultaneously. i.e. FLIPR and FlexStation) or off-line (other liquid handling equipments are used for compound addition). Test compounds in 1×DPBS was added to the cell plates at 50 μl/well for 96-well plates (250 μl total well volume after addition) or 10 μl/well for 384-well plates (50 μl total well volume after addition). Cell plates are loaded into a FLIPR, FLEXstation, or other fluorescence microplate reader to read fluorescence intensity before and after compound addition. The settings on FLIPR are described in the manuals from the manufacturer. For FLEXstation and other fluorescence microplate readers, wavelengths close to the maxima of absorption and emission of the dye are used: for example, 530 nm excitation, 550 auto cut-off, and 565 nm emission. […] Fluorescence intensity counts obtained before and 30 minutes after compound addition were used for data analysis. […] It has been reported that PDE4 is a dominant isozyme in HEK293 cells. In order to analyze the specificity of the PDE assay, different PDE inhibitors (Ro20-1724, Rolipram, Etazolate (PDE IV inhibitors); 8-methoxymethyl-3-isobuty-1-m (PDE I inhibitor); Zaprinast (cGMP specific PDE inhibitor); Quazinon (PDE III inhibitor); IBMX (pan PDE inhibitor)) were purchased from Sigma. They were diluted at different concentrations in 1×DPBS and the assays were performed the same as above using the ACTOne-IRES-A2b#2 cell line. Briefly, the cells were plated on 384-well PDL coated plate. The density of the cells was 14,000 cells per well. The cells were allowed to attach and grow overnight. […]

Structure (SMILES) | detection of PDE inhibitor activity (dose response, fluorescence intensity)
CCOC(=O)c1cnc2c(cnn2CC)c1NN=C(C)C.Cl [Etazolate, 1-ethyl-4-[(1-methylethylidene)hydrazino]1H-pyrazol-o[3,4-b]pyridine-5-carboxylic acid ethyl ester hydrochloride] | detected
COCc1nc2c([nH]1)c(=O)n(C)c(=O)n2CC(C)C [8-methoxymethyl-3-isobuty-1-m, 8-Methoxymethyl-3-isobutyl-1-methylxanthine] | negative signals
COc1ccc(C2CNC(=O)C2)cc1OC1CCCC1 (stereo not shown) [Rolipram, 4-[3-(cyclopentyloxy)-4-methoxyphenyl]-2-pyrrolidinone] | detected
CCCCOc1cc(CC2CNC(=O)N2)ccc1OC (stereo not shown) [Ro20-1724] | detected
CC(C)Cn1c(=O)n(C)c(=O)c2[nH]cnc21 [IBMX, 3-Isobutyl-1-methylxanthine] | can not be detected; also recorded: negative signals
CCCOc1ccccc1-c1nc2nn[nH]c2c(=O)[nH]1 [Zaprinast] | negative signals
C[C@@H]1C(=O)NC2=Nc3cccc(Cl)c3CN21 [Quazinon] | negative signals
